Experimental data published in patent publication US7842703B2, “Substituted benzofused derivatives and their use as vanilloid receptor ligands” (Glenmark Pharmaceuticals S.A., priority 2005, dated 2010).

Target: T1, Human TRPV1 expressing CHO cells (Homo sapiens, UniProt Q8NER1)
T1 construct: expressed in transfected cells; host or cells: CHO cells under G-418 selection
Assay: Screening for TRPV1 antagonist using the 45Calcium uptake assay (inhibition of capsaicin induced cellular uptake of radioactive calcium)
Assay type: cell-based
Conditions: for inhibition at 1 µM: CHO; for inhibition at 1 µM / % inhibition of ^45Ca uptake at 1 μM: test compound 1 μM, capsaicin 250 nM, relative to maximum ^45Ca uptake induced by capsaicin alone; for IC50: inhibition of capsaicin (250 nM) induced ^45Ca uptake
Procedure: The inhibition of TRPV1 receptor activation was followed as inhibition of capsaicin induced cellular uptake of radioactive calcium which represents calcium influx exclusively through the plasma membrane associated TRPV1 receptor.
Stock solution of capsaicin was made in ethanol and test compounds in 100% DMSO. Stock solutions were diluted to appropriate final concentrations in assay buffer keeping the final DMSO concentration between 0.1% and 0.55%.
^45Ca was used at a final concentration of 2.5 μCi/ml (^45Ca, ICN).
Assay buffer was composed of F-12 DMEM medium supplemented with 1.8 mM CaCl2 (final conc.) and 0.1% Bovine serum albumin. (BSA from SIGMA)
Wash buffer was tyrodes solution supplemented with 0.1% BSA and 1.8 mM calcium. Lysis buffer contained 50 mM Tris-HCl, pH7.5, 150 mM NaCl, 1% Triton X-100, 0.5% deoxycholate and 0.1% Sodium dodicyl sulphate (SDS, SIGMA)
Assay was carried out with some modifications the of procedure as described by Toth et. al. (See Toth A et. al., Life Sciences 73 p 487-498, 2003). Human TRPV1 expressing CHO cells were grown in F-12 DMEM (Dulbecco's modified Eagle's medium—GIBCO) medium with 10% FBS (fetal bovine serum Hyclone), 1% penicillin-streptomycin solution, 400 μg/ml of G-418. Cells were seeded 48 h prior to the assay in 96 well plates so as to get ˜50,000 cells per well on the day of experiment. Plates were incubated at 37° C. in the presence of 5% CO2. Cells were then washed twice with 200 μl of assay buffer and re-suspended in 144 μl of the same. Assay was carried out at 30° C. in total volume of 200 μl. Test compounds were added to the cells fifteen minutes before addition of capsaicin, Final concentration of capsaicin in the assay was 250 nM. After 5 minutes of agonist treatment, drug was washed out and wells rinsed with 300 μl of ice cold wash buffer 3×. The cells were lysed in 50 μl lysis buffer for 20 min. 40 μl of cell lysate was mixed with 150 μl of Microscint PS, left overnight for equilibration. Radioactivity in samples was measured as counts per minute (cpm) using Packard Biosciences Top Count. The drug/vehicle/capsaicin treated ^45Ca uptake values were normalized over basal ^45Ca value. Data was expressed as % inhibition of ^45Ca uptake by test compound with respect to maximum ^45Ca uptake induced by capsaicin alone. IC50 value was calculated from dose response curve by nonlinear regression analysis using GraphPadPRISM software.

T1 sequence (Q8NER1 whole entry): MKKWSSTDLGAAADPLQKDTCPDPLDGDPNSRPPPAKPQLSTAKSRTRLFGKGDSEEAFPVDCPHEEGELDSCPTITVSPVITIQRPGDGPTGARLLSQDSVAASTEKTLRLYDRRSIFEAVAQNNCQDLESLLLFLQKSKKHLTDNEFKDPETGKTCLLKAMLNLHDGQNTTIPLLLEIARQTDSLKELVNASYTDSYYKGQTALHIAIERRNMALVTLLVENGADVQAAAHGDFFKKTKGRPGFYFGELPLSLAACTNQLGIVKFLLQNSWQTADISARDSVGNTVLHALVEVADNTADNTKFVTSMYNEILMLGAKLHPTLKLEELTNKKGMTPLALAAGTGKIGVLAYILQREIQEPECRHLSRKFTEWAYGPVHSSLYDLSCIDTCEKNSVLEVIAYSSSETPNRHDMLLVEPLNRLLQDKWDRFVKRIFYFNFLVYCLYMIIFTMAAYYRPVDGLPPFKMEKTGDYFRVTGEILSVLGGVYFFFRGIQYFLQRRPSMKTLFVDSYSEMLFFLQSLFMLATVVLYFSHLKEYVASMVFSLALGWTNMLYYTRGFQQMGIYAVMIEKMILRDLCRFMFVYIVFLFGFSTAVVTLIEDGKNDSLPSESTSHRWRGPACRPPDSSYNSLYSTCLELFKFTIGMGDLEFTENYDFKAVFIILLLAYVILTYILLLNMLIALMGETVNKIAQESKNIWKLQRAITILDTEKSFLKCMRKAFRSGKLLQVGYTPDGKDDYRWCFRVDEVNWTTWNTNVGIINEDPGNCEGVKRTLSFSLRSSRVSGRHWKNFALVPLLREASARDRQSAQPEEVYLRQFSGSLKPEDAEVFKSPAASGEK

SMILES | inhibition at 1 µM [%] | IC50 [nM] | % inhibition of ^45Ca uptake at 1 μM [%]
CN1CCC2(CC1)CC(NC(=O)Nc1cccc3cnccc13)c1ccccc1O2 (racemic) [Example 1, (±) 1-{3,4-Dihydro-1′-(methyl)spiro-[2H-1-benzopyran-2,4′-piperidine]-4-yl}-3-(isoquinoline-5-yl)urea] | 142 |  | 
O=C(Nc1cccc2cnccc12)NC1CC2(CCOCC2)Oc2ccccc21 (racemic) [Example 2, (±) 1-(2′,3,3′,4,5′,6′-Hexahydrospiro-[2H]-1-benzopyran-2,4′-pyran-4-yl)-3-(isoquinoline-5-yl)urea] |  | 171 | 96.12
O=C(Nc1cccc2cnccc12)NC1CC2(CCC2)Oc2ccccc21 (racemic) [Example 3, (±) 1-(3,4-Dihydro-spiro-[2H-1-benzopyran-2,1′-cyclobutan]-4-yl)-3-(isoquinolin-5-ylurea] |  | 2.89 | 100
O=C(Nc1ccc(Cl)c2cnccc12)NC1CC2(CCC2)Oc2ccccc21 (racemic) [Example 6, (±) 1-(3,4-dihydro-spiro[2H-1-benzopyran-2,1′-cyclobutane]-4-yl)-3-(8-chloroisoquinolin-5-ylurea] | > 50 | 339 | 
Cc1cc2c(NC(=O)NC3CC4(CCC4)Oc4ccccc43)cccc2cn1 (racemic) [Example 7, (±) 1-(3,4-Dihydro-spiro[2H-1-benzopyran-2,1′-cyclobutane]-4-yl)-3-(3-methylisoquinolin-5-yl)urea] | > 50 | 183 | 
Cc1nccc2c(NC(=O)NC3CC4(CCC4)Oc4ccccc43)cccc12 (racemic) [Example 8, (±) 1-(3,4-Dihydro-spiro[2H-1-benzopyran-2,1′-cyclobutane]-4-yl)-3-(1-methylisoquinolin-5-yl)urea] | > 50 | 551 | 
O=C(Nc1cccc2c[n+]([O-])ccc12)NC1CC2(CCC2)Oc2ccccc21 (racemic) [Example 9, (±) 1-(3,4-Dihydro-spiro[2H-1-benzopyran-2,1′-cyclobutane]-4-yl)-3-(2-oxoisoquinolin-5-yl)urea] | > 50 | 103 | 
O=C(Nc1nc2ccc(Cl)cc2s1)NC1CC2(CCC2)Oc2ccccc21 (racemic) [Example 11, (±) 1-(3,4-Dihydro-spiro[2H-1-benzopyran-2,1′-cyclobutane]-4-yl)-3-(6-chloro-1,3-benzothiazol-2-yl)urea] | < 50 |  | 
Cn1ncc2cc(NC(=O)NC3CC4(CCC4)Oc4ccccc43)ccc21 (racemic) [Example 13, (±) 1-(3,4-Dihydro-spiro[2H-1-benzopyran-2,1′-cyclobutane]-4-yl)-3-(1-methyl-1H-indazol-5-yl)urea] | > 50 | 147 | 
COc1ccc2nc(NC(=O)NC3CC4(CCC4)Oc4ccccc43)sc2c1 (racemic) [Example 14, (±) 1-(3,4-Dihydro-spiro[2H-1-benzopyran-2,1′-cyclobutane]-4-yl)-3-(6-methoxy-1,3-benzothiazol-2-yl)urea] | < 50 |  | 
Cn1cc2cc(NC(=O)NC3CC4(CCC4)Oc4ccccc43)ccc2n1 (racemic) [Example 15, (±) 1-(3,4-Dihydro-spiro[2H-1-benzopyran-2,1′-cyclobutane]-4-yl)-3-(2-methyl-2H-indazol-5-yl)urea] | < 50 |  | 
CC(C)(C)c1nnc(NC(=O)NC2CC3(CCC3)Oc3ccccc32)s1 (racemic) [Example 16, (±) 1-(3,4-Dihydro-spiro[2H-1-benzopyran-2,1′-cyclobutane]-4-yl)-3-(5-tert-butyl-1,3,4-thiadiazol-2-yl)urea] | > 50 | 797 | 
O=C(Nc1ncc(-c2ccc(Br)cc2)s1)NC1CC2(CCC2)Oc2ccccc21 (racemic) [Example 17, (±) 1-(3,4-Dihydro-spiro[2H-1-benzopyran-2,1′-cyclobutane]-4-yl)-3-[5-(4-bromophenyl)-1,3-thiazol-2-yl])urea] |  |  | <50
Cc1ccc2nc(NC(=O)NC3CC4(CCC4)Oc4ccccc43)sc2c1 (racemic) [Example 18, (±) 1-(3,4-Dihydro-spiro[2H-1-benzopyran-2,1′-cyclobutane]-4-yl)-3-(6-methyl-1,3-benzothiazol-2-yl)urea] | < 50 |  | 
CC(=O)n1ncc2cc(NC(=O)NC3CC4(CCC4)Oc4ccccc43)ccc21 (racemic) [Example 19, (±) 1-(3,4-Dihydro-spiro[2H-1-benzopyran-2,1′-cyclobutane]-4-yl)-3-(1-acetyl-1H-indazol-5-yl)urea] | < 50 |  | 
O=C(Nc1csc2cnccc12)NC1CC2(CCC2)Oc2ccccc21 (racemic) [Example 20, (±) 1-(3,4-Dihydro-spiro[2H-1-benzopyran-2,1′-cyclobutane]-4-yl)-3-(thieno[2,3-c]pyridine-3-ylurea] |  |  | <50
O=C(Nc1nnc(-c2ccc(Br)cc2)s1)NC1CC2(CCC2)Oc2ccccc21 (racemic) [Example 21, (±) 1-(3,4-Dihydro-spiro[2H-1-benzopyran-2,1′-cyclobutane]-4-yl)-3-([5-(4-bromophenyl)-1,3,4-thiadiazol-2-yl]-)urea] |  |  | <50
Cc1cc(C)nc(NC(=O)NC2CC3(CCC3)Oc3ccccc32)n1 (racemic) [Example 22, (±) 1-(3,4-Dihydro-spiro[2H-1-benzopyran-2,1′-cyclobutane]-4-yl)-3-(4,6-dimethylpyrimidin-2-yl)urea] | < 50 |  | 
O=C(Nc1nc2cc(Cl)ccc2o1)NC1CC2(CCC2)Oc2ccccc21 (racemic) [Example 23, (±) 1-(3,4-Dihydro-spiro[2H-1-benzopyran-2,1′-cyclobutane]-4-yl)-3-(5-chloro-1,3-benzoxazol-2-yl)urea] | < 50 |  | 
O=C(Nc1nnc(-c2ccc([N+](=O)[O-])cc2)s1)NC1CC2(CCC2)Oc2ccccc21 (racemic) [Example 24, (±) 1-(3,4-Dihydro-spiro[2H-1-benzopyran-2,1′-cyclobutane]-4-yl)-3-(5-(4-nitrophenyl)-1,3,4-thiadiazol-2-yl)urea] | < 50 |  | 
O=C(NCc1ccco1)NC1CC2(CCC2)Oc2ccccc21 (racemic) [Example 25, (±) 1-(3,4-Dihydro-spiro[2H-1-benzopyran-2,1′-cyclobutan]-4-yl)-3-(2-furylmethyl)urea] | < 50 |  | 
O=C(Nc1cccc2ncccc12)NC1CC2(CCC2)Oc2ccccc21 (racemic) [Example 26, (±) 1-(3,4-Dihydrospiro[2H-1-benzopyran-2,1′-cyclobutan]-4-yl)-3-(quinolin-5-yl)urea] | 19.8 |  | 
O=C(Nc1cccc2ccncc12)NC1CC2(CCC2)Oc2ccccc21 (racemic) [Example 27, (±) 1-(3,4-Dihydrospiro[2H-1-benzopyran-2,1′-cyclobutan]-4-yl)-3-(isoquinolin-8-yl)urea] | 46.9 |  | 
O=C(NCc1cccnc1)NC1CC2(CCC2)Oc2ccccc21 (racemic) [Example 31, (±) 1-(3,4-Dihydro-spiro[2H-1-benzopyran-2,1′-cyclobutan]-4-yl)-3-(pyridin-3-ylmethyl)urea] | < 50 |  | 
O=C(NCc1ccccn1)NC1CC2(CCC2)Oc2ccccc21 (racemic) [Example 32, (±) 1-(3,4-Dihydro-spiro[2H-1-benzopyran-2,1′-cyclobutane]-4-yl)-3-(pyridin-2-ylmethyl)urea] | < 50 |  | 
Cc1ccc2c(c1)C(NC(=O)Nc1cccc3cnccc13)CC1(CCC1)O2 (racemic) [Example 40, (±)-1-(3,4-Dihydro-6-methyl-spiro[2H-1-benzopyran-2,1′-cyclobutane]-4-yl)-3-(isoquinolin-5-yl)urea] | > 50 | 123 | 
Cc1ccc2c(c1)OC1(CCC1)CC2NC(=O)Nc1cccc2cnccc12 (racemic) [Example 41, (±) 1-(3,4-Dihydro-7-methyl-spiro[2H-1-benzopyran-2,1′-cyclobutane]-4-yl-3-(isoquinolin-5-yl)urea] | > 50 | 0.48 | 
O=C(Nc1cccc2cnccc12)NC1CC2(CCC2)Oc2ccc(F)cc21 (racemic) [Example 42, (±) 1-(3,4-Dihydro-6-fluoro-spiro[2H-1-benzopyran-2,1′-cyclobutane]-4-yl)-3-(isoquinolin-5-yl)urea] | > 50 | 11.9 | 
